Measurements: ChEMBL document CHEMBL1123826, “Nitrogen bridgehead compounds. 66. Bronchodilator nitrogen bridgehead compounds with a pyrimidinone moiety” (J Med Chem, 1987)

Key:
[1] = species on record: Cavia porcellus; assay: Bronchodilator activity against acetylcholine-induced spasm in guinea pig; assay type: functional; conditions: read-out: ID50 (the source's name)
[2] = species on record: Cavia porcellus; assay: Bronchodilator activity against histamine-induced spasm in guinea pig; assay type: functional; conditions: read-out: ID50 (the source's name)
[3] = species on record: Cavia porcellus; assay: Bronchodilator activity against serotonin-induced spasm in guinea pig; assay type: functional; conditions: read-out: ID50 (the source's name)
[4] = species on record: Cavia porcellus; assay: Compound was tested for Bronchodilator activity against acetylcholine-induced spasm in guinea pig by Konzett-Rossler test; assay type: organism-based; conditions: in vivo
[5] = species on record: Homo sapiens; assay: Compound was tested for Bronchodilator activity against isolated human bronchus contracted by carbachol; assay type: functional
[6] = Relative potency is ratio of IC50 of theophylline / IC50 was determined; assay type: functional
[7] = tested on: Cavia porcellus; assay: Compound was tested for Bronchodilator activity against histamine-induced spasm in guinea pig by Konzett-Rossler test; dose administered by intraduodenal route.; assay type: functional; conditions: read-out: ID50 (the source's name)
[8] = tested on: Cavia porcellus; assay: Compound was tested for Bronchodilator activity against serotonin-induced spasm in guinea pig by Konzett-Rossler test; dose administered by intraduodenal route.; assay type: functional; conditions: read-out: ID50 (the source's name)
[9] = tested on: Cavia porcellus; assay: Compound was tested for Bronchodilator activity against acetylcholine-induced spasm in guinea pig by Konzett-Rossler test; dose administered by intraduodenal route.; assay type: functional; conditions: read-out: ID50 (the source's name)
[10] = species on record: Homo sapiens; assay: compound was tested for Bronchodilator activity against isolated human bronchus contracted by carbachol; assay type: functional
[11] = species on record: Cavia porcellus; assay: […] activity was evaluated by inhibition of BaCl2 induced spasm in isolated guinea pig ileum; assay type: functional
[12] = species on record: Cavia porcellus; assay: […] activity was evaluated by inhibition of acetylcholine induced spasm in isolated guinea pig ileum; assay type: functional
[13] = species on record: Cavia porcellus; assay: […] activity was evaluated by inhibition of histamine induced spasm in isolated guinea pig ileum; assay type: functional
[14] = species on record: Cavia porcellus; assay: […] activity was evaluated by inhibition of nicotinate induced spasm in isolated guinea pig ileum; assay type: functional
[15] = species on record: Cavia porcellus; assay: Compound was tested for Anticholenergic activity on isolated guinea pig trachea contracted by carbachol; assay type: functional
[16] = Ratio of pA2 to pD2 was determined on isolated guinea pig trachea; assay type: functional
[17] = species on record: Cavia porcellus; assay: […] activity was evaluated by inhibition of serotonin induced spasm in isolated guinea pig ileum; assay type: functional

Compound	ED50 [1]	ED50 [2]	ED50 [3]	other results
CC1CCc2nc3c(c(=O)n21)CCCC3 (stereo not drawn)	74.6 µmol/kg	19.7 µmol/kg	46.8 µmol/kg	–
CC1CCn2c(nc3c(c2=O)CCCC3)C1 (stereo not drawn)	29.9 µmol/kg	25.7 µmol/kg	39.3 µmol/kg	–
S=c1c2c(nc3n1CCCCC3)CCCC2	> 320 µmol/kg	> 320 µmol/kg	> 320 µmol/kg	–
CCOC(=O)c1c[n+](C)c2n(c1=O)C(C)CCC2 (stereo not drawn) [RIMAZOLIUM METILSULFATE]	31 µmol/kg	8 µmol/kg	14 µmol/kg	–
CCOC(=O)c1ccc2c(=O)n3c(nc2c1)CCCC3	> 32 µmol/kg	15.1 µmol/kg	> 32 µmol/kg	–
O=c1c2c(nc3n1CCCC3)CCC2	23.7 µmol/kg	25.7 µmol/kg	24.1 µmol/kg	–
O=c1c2c(nc3n1CCCCCC3)CCCC2	58.5 µmol/kg	27.1 µmol/kg	44.6 µmol/kg	–
O=c1nc2n(c3c1CCCCC3)CCC2	–	> 32 µmol/kg	> 32 µmol/kg	ID50 [4]: > 32 µM/kg
O=c1c2c(nc3n1CCC3)CCC2	> 100 µmol/kg	46.1 µmol/kg	82.5 µmol/kg	–
O=c1nc2n(c3c1CCCC3)CCC2	> 100 µmol/kg	> 100 µmol/kg	107 µmol/kg	–
O=c1c2c(nc3n1CCC3)CCCCCC2	100 µmol/kg	164 µmol/kg	57.1 µmol/kg	–
Cc1cccc2nc3c(c(=O)n12)CCCC3	10 µmol/kg	9.7 µmol/kg	6.1 µmol/kg	–
CC1CCc2nc3c(c(=O)n2C1)CCCC3 (stereo not drawn)	28.9 µmol/kg	23.6 µmol/kg	38.1 µmol/kg	–
O=c1c2c(nc3n1CCC3)CCCCC2	38.5 µmol/kg	27.6 µmol/kg	33 µmol/kg	–
O=c1c2c(nc3ccccn13)CCCCCC2	53.3 µmol/kg	32.7 µmol/kg	49 µmol/kg	–
O=C(O)c1ccc2c(=O)n3c(nc2c1)CCCCC3	> 100 µmol/kg	> 100 µmol/kg	> 100 µmol/kg	–
CC1CCCn2c1nc1c(c2=O)CCCC1 (stereo not drawn)	47.1 µmol/kg	19.8 µmol/kg	36.2 µmol/kg	–
O=c1nc2n(c3c1CCCC3)CCCCC2	> 32 µmol/kg	> 32 µmol/kg	55.1 µmol/kg	–
Cl.O=c1c2c(nc3ccccn13)CCCC2	18.2 µmol/kg	6.1 µmol/kg	16.7 µmol/kg	IC50 [5]: 127 uM l-1; Relative potency [6]: 1.18

Compound	ED50 [1]	ED50 [2]	ED50 [3]	other results
O=c1c2ccccc2nc2n1CCC2	37.7 µmol/kg	16.9 µmol/kg	21.2 µmol/kg	–
Cc1cccc2c(=O)n3c(nc12)CCCCC3	–	–	–	ED50 [7]: > 32 µmol/kg; ED50 [8]: > 32 µmol/kg; ED50 [9]: > 32 µmol/kg
CCOC(=O)c1ccc2c(=O)n3c(nc2c1)CCC3	> 32 µmol/kg	14.4 µmol/kg	> 32 µmol/kg	–
CC1CCn2c(nc3c(c2=O)CCC3)C1 (stereo not drawn)	56.4 µmol/kg	18.9 µmol/kg	22.5 µmol/kg	IC50 [10]: 141 uM l-1; Relative potency [6]: 1.07
O=c1c2c(nc3n1CCCCC3)CCCC2	–	3 µmol/kg	3 µmol/kg	–
CC1CCCn2c1nc1c(c2=O)CCC1 (stereo not drawn)	12.8 µmol/kg	11.5 µmol/kg	7.7 µmol/kg	–
O=C(O)c1ccc2nc3n(c(=O)c2c1)CCCC3	> 100 µmol/kg	> 100 µmol/kg	> 100 µmol/kg	–
COC(=O)c1ccc2nc3n(c(=O)c2c1)CCCCC3	–	–	–	ED50 [7]: 32 µmol/kg; ED50 [8]: 32 µmol/kg; ED50 [9]: > 32 µmol/kg
COC(=O)c1ccc2nc3n(c(=O)c2c1)CCCC3	> 32 µmol/kg	16.8 µmol/kg	12.3 µmol/kg	–
Cc1ccc2nc3n(c(=O)c2c1)CCCCC3	16 µmol/kg	25.3 µmol/kg	44.7 µmol/kg	–
O=C(O)c1ccc2c(=O)n3c(nc2c1)CCCC3	> 100 µmol/kg	> 100 µmol/kg	> 100 µmol/kg	–
O=c1c2c(nc3n1CCCCC3)CCCCCC2	2.26 µmol/kg	33 µmol/kg	> 100 µmol/kg	–
O=c1c2c(nc3n1CCCCC3)CCC2	–	–	–	IC50 [11]: 113 uM l-1; IC50 [12]: 2530 nM; IC50 [13]: > 100 µM; IC50 [14]: 75 µM; pD2 [15]: 5.37; Kb ([15]; read-out: pA2 (converted)): 229 nM; IC50 [5]: 15.2 µM; Ratio [16]: 1.23; Relative potency [6]: 9.93; IC50 [17]: 112 uM l-1
Cc1cccn2c(=O)c3c(nc12)CCCCCC3	42.6 µmol/kg	23.8 µmol/kg	14.3 µmol/kg	–
Cc1ccc2nc3c(c(=O)n2c1)CCCC3	32 µmol/kg	15.6 µmol/kg	20.4 µmol/kg	–
CCc1c(C)nc2ccccn2c1=O.Cl	29.4 µmol/kg	8.6 µmol/kg	12 µmol/kg	IC50 [5]: 127 uM l-1; Relative potency [6]: 1.19
O=c1c2ccccc2nc2n1CCCCCC2	61.8 µmol/kg	61.8 µmol/kg	> 100 µmol/kg	–
CC1CCn2c1nc1ccccc1c2=O (stereo not drawn)	45.8 µmol/kg	27.3 µmol/kg	29.4 µmol/kg	–
